According to US11767296B2, “Heteroaryl compounds as kinase inhibitor” (FUJIAN HAIXI PHARMACEUTICALS CO., LTD, priority 2018, dated 2023):
pIC50: −log10 of the molar value.

Key:
[1] = target: T1, CSF-1R (Homo sapiens, UniProt P07333); assay: CSF-1R kinase assay (HTRF kinEASE TK); format: biochemical; conditions: ATP 2.5 uM, enzyme 0.012 ng/ul, read-out: In vitro inhibitory activity of CSF-1R IC50
T1 construct: purchased Invitrogen PV3249
Method: Example 53: CSF-1R Kinase Assay
I. Materials and Instruments
• 2104 EnVision® Multilabel Reader (PerkinElmer) • OptiPlate-384, White Opaque 384-well MicroPlate (Cat.6007290, PerkinElmer) • HTRF kinEASE TK (Cat.62TKOPEC, Cisbio) • CSF-1R(Cat. PV3249, Invitrogen) • ATP 10 mM (Cat. PV3227, Invitrogen) • DTT 1 M (Cat. D5545, Sigma) • MgCl2 1 M (Cat. M8266, Sigma) • MnCl2 1 M (Cat.244589. Sigma)
II. Experimental Procedure
Substrate-TK and ATP were diluted to 5 times of the reaction concentration by 1×Kinase Buffer. CSF1R enzyme was diluted to 5×enzyme solution by 1×kinase buffer. Sa-XL665 was diluted to 4×Sa-XL665 solution by Detection Buffer. 100×TK-Ab-Cryptate Solution TK-Ab-Cryptate was diluted to 100×TK-Ab-Cryptate solution by Detection Buffer. 2. Experimental Procedure After all reagents had been prepared according to the above method, except enzymes, the sample was added after equilibrium to room temperature. • a. Firstly, 2.5% DMSO solution was prepared by using 1×kinase buffer (the high concentration of DMSO will affect the reaction and control the final concentration of DMSO to 1%). Then the compounds were diluted by 2.5% DMSO solution corresponding to the enzyme. The screening concentration of the compounds was 4 times gradient dilution from 1000 nM, and 8 concentrations. In addition to the control pore, 4 microlitres of diluted solution containing 2.5% DMSO were added to the reaction pore and 4 microlitres of previously prepared solution containing 2.5% DMSO were added to the control pore. • b. 2 microlitres of previously prepared TK-biotin substrate solution was added to all reaction pore (the amount of substrate used for enzyme screening is shown in Table 15). • c. Adding 2 microlitres of CSF1R enzyme solution of corresponding concentration (the amount of enzyme is shown in Table 15) to all reaction pore except negative pore. The negative pore is supplemented with 2 microlitres of enzyme corresponding to 1 xkinase buffer. After mixing, the compound and enzyme can be fully combined by incubating at room temperature for 10 minutes. • d. Enzyme reaction was initiated by adding 2 microlitres ATP solution of corresponding concentration to all reaction pore. The reaction time was 30 minutes (the corresponding ATP concentration and reaction time at enzyme screening were shown in Table 15). • e. Preparing the test solution 5 minutes before the end of kinase reaction. Streptavidin-XL665 and TK antibody europium cryptate (1:100) were prepared with detection buffer in the kit (the corresponding concentration of detection reagent for enzyme screening is shown in Table 15). • f. After the kinase reaction, 5 microlitres of diluted Streptavidin-XL665 were added to all reaction pore, mixing, and then the diluted TK antibody europium cryptate solution was added immediately. • g. After 1 hour reaction at room temperature, the fluorescence signals (320 nm stimulation, 665 nm, 615 nm emission) were detected by ENVISION (Perkinelmer) instrument. The inhibition rate of each pore was calculated by full active pore and background signal pore, and the average value of complex pore was obtained. Meanwhile, the half inhibitory activity (IC50) of each compound was fitted by professional drawing analysis software PRISM 5.0. The Flow Chart of the Experiment is as Follows:
3. Data Analysis Emission Ratio (ER)=665 nm Emission signal/615 nm Emission signal Inhibitory rate=(ERpositive−ERsample)/(ERpositive−ERnegative)*100% Using Graphpad Prism 5 and log (inhibitor) vs. normalized response to fit IC50 curve and calculate IC50 value. The IC50 data of the compounds prepared in Representative Examples 3-52 are as follows (Table 18): […]

[2] = test system: NFS-60 cells; assay: NFS-60 cell assay (CCK proliferation, M-CSF stimulated); format: cell-based; conditions: Mus musculus, compound 0.5 uM, 72 h, 40 ng/mL M-CSF, read-out: inhibition ratio % (NFS-60 cell proliferation)
Method: Example 54: NFS-60 Cell Assay
1. Experimental Materials
Mouse Myelogenous Leukemia Cells (NFS-60)
Using DMSO to dissolve, and the required concentration was prepared with full culture medium without factors.
Penicillin-streptomycin: TRANS
Mouse M-CSF/CSF-1 Protein: Sino Biological Inc, No. 51112-MNAH
M-CSF: Qilu Pharmaceutical co., Ltd.
The logarithmic growth phase of NFS-60 cells (1640+10% FBS+40 ng/ml M-CSF+1% Penicillin-streptomycin) were centrifuged (1000 r/min) and cultured in a factor-free medium at 37° C., 5% CO2 for 24 hours. Centrifugating (1000 r/min), the culture medium was replaced by new culture medium including 40 ng/mL factors, and inoculated on 96-well plate by 2*10^4 cells/mL, 100 μL/hole. After 16 hours, the tested compounds were added 10 μL/hole, 3 duplicate holes per compound, 37° C., 5% CO2, continue to cultured for 72 h. Then 10 μL CCK reagent was added to each hole. After incubation for 4 hours, the absorbance of each hole was measured at 450 nm wavelength. According to Formula: Inhibitory rate (%)=(1-OD value of test pore/OD value of solvent control pore)×100% 3. Experimental Results The experimental results of the inhibition of NFS-60 cell proliferation by the compounds prepared in Example 3-52, 0.5 uM, are shown in the following table: […]

[3] = test system: MC-38 transplanted tumors; assay: Animal pharmacodynamics experiment: MC-38 transplanted tumors in C57 mice; format: in vivo; conditions: 2 weeks; for inhibition in vivo at 30 mg/kg: Mus musculus, MC-38, po, 336 h, compound alone, 30 mg/kg intragastrically daily, read-out: inhibition ratio (tumor size, MC-38 transplanted tumors); for inhibition ratio (tumor size, MC-38 transplanted tumors): compound 30 mg/kg intragastrically daily + anti-PD1 10 mg/kg i.p. once every 3 days
Method: Example 55: Animal Pharmacodynamics Experiment
In this study. MC-38 cell lines were inoculated in C57 mice
Experimental animal: C57 mice, male, 5-6 weeks old (18-22 g)
Inoculation: 2×10^6/0.1 mL, Matrigel is added in 3:1 ratio
PD1: InVivoMAb anti-mouse PD-1 (CD279). BioXCell
Group: On day 4 after inoculating, all the mice were divided into 13 groups, respectively model group, the anti-PD1 2 mg/kg group, anti-PD110 mg/kg group, testing compounds alone, and the tested compound combine with anti-PD1 10 mg/kg. Compounds were intragastrically administered daily at a dose of 30 mg/kg and anti-PD1 was intraperitoneally injected once every 3 days. The drug was administered continuously for 2 weeks. In model group, 80% glycerol+20% CMC-Na was given daily.
Results: The experimental results of anti-PD1 combined with the compounds prepared in the representative example 3-52 on the inhibition of tumor size of MC-38 transplanted tumors are as follows: […]

T1 sequence (P07333 20-972): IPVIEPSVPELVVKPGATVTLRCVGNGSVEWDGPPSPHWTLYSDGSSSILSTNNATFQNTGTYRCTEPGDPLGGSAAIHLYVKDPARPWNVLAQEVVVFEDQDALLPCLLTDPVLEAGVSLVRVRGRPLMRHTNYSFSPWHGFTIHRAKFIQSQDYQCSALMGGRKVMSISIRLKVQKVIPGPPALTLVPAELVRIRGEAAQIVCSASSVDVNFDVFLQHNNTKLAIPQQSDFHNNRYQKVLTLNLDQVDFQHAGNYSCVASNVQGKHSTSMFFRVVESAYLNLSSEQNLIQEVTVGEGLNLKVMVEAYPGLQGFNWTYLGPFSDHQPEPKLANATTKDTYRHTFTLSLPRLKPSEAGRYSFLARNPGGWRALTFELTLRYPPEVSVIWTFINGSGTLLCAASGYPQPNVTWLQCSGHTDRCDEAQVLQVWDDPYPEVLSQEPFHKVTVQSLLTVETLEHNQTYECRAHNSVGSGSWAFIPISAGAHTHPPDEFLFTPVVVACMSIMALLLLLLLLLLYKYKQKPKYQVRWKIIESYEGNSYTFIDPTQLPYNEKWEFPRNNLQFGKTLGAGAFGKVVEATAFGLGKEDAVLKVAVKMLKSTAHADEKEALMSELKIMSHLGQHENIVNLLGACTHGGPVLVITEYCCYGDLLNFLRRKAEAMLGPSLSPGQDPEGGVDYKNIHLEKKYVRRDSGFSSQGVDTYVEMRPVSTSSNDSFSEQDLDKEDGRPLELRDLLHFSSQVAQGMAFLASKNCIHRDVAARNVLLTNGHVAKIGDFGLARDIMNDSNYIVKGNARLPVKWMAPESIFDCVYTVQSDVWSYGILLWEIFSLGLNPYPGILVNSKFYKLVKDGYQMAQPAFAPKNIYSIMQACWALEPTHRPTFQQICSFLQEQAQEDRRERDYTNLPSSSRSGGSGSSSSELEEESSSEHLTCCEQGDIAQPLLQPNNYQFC

pIC50 [1]	Compound	inhibition at 0.5 µM [2] [%]	inhibition in vivo at 30 mg/kg [3] [%]	inhibition ratio (tumor size, MC-38 transplanted tumors) [3]
≥ 7.30	Cc1cccc(C(=O)Nc2cccc([C@@H](C)Oc3cc(Cl)cnc3N)c2)c1 [Compound 72, (R)-N-(3-(1-((2-amino-5-chloropyridin-3-yl)oxy)ethyl)-phenyl)-3-methylbenzamide]	≥ 50	< 10	++ (++: 10%-30%)
≥ 7.30	Cc1ccc(C(=O)Nc2cccc([C@@H](C)Oc3cc(-c4cnn(C)c4)cnc3N)c2)cc1N(C)C [Compound 179, (R)-N-(3-(1-((2-amino-5-(1-methyl-1H-pyrazol-4-yl)pyridin-3-yl)oxy)ethyl)phenyl)-3-(dimethylamino)-4-methylbenzamide]	≥ 50	10 to 30	+++ (+++: ≥30%)
≥ 7.30	C[C@@H](Oc1cc(-c2cnn(C)c2)cnc1N)c1cccc(NC(=O)c2cccc(N(C)C)c2)c1 [Compound 178, (R)-N-(3-(1-((2-amino-5-(1-methyl-1H-pyrazol-4-yl)pyridin-3-yl)oxy)ethyl)phenyl)-3-(dimethylamino)benzamide]	≥ 50	10 to 30	+++ (+++: ≥30%)
≥ 7.30	Cc1cncc(C(=O)Nc2cccc([C@@H](C)Oc3cc(Cl)cnc3N)c2)c1 [Compound 83, (R)-N-(3-(1-((2-amino-5-chloropyridin-3-yl)oxy)ethyl)-phenyl)-5-methylnicotinamide]	–	< 10	+++ (+++: ≥30%)
≥ 7.30	CSc1cc(C(=O)Nc2cccc([C@@H](C)Oc3cc(-c4cnn(C)c4)cnc3N)c2)ccc1C [Compound 182, (R)-N-(3-(1-((2-amino-5-(1-methyl-1H-pyrazol-4-yl)pyridin-3-yl)oxy)ethyl)phenyl)-4-methyl-3-(methylthio)benzamide]	≥ 50	10 to 30	+++ (+++: ≥30%)
≥ 7.30	C[C@@H](Oc1cc(Cl)cnc1N)c1cccc(NC(=O)c2cccc(S(C)(=O)=O)c2)c1 [Compound 78, (R)-N-(3-(1-((2-amino-5-chloropyridin-3-yl)oxy)ethyl)-phenyl)-3-(methylsulfonyl)-benzamide]	–	< 10	++ (++: 10%-30%)
